{
  "source": "patent US7294615B1",
  "about": "“Compounds that associate on the intermolecular level and aggregate bodies that contain them” (priority 1999, dated 2007)",
  "key": {"[1]": {"system": "Influenza virus A/Duck/Alberta/60/67 H12N5", "format": "binding"}, "[2]": {"test": "Gel permeation chromatography of aggregates", "format": "physicochemical", "conditions": "for Aggregate, %: determined by gel permeation chromatography", "text": "(§1) The formation of aggregates in solution can be observed by light scattering experiments or by gel permeation chromatography.\nThe compound of the general formula (I) Neu5Ac-Gab-ACm-Ad-Gly5-NHCH2-]4C (m=1-3) associates at room temperature in aqueous and organic solvents.\nSilica gel 60 (40-63 μm) (Merck) was used for column chromatography. Sephadex of types LH-20, G-10, G-25 (Pharmacia, Sweden) and TSK-4000 (HPLC) were used for gel permeation chromatography."}, "[3]": {"system": "Influenza virus A/NIB/44/90M H3N2", "test": "Fetuin binding inhibition (FBI) test, inhibition of viral cell adhesion", "conditions": "for Relative activity: FBI test, Neu5AcαBn as reference compound (=1), specific activity per Neu5Ac group; for Kd: inhibitor virus complex"}, "[4]": {"test": "Light scattering, particle size of aggregates", "format": "physicochemical", "method": "as §1\nThe light scattering experiments were carried out using the following apparatus: Coultronics Coulter N4-MD (He-Ne laser, λ=632.8 nm, measurement of the scattering at an angle of 62.5° to the incident light beam), Spectra-Physics 164 (argon laser, λ=528.7 nm and λ=611.5 nm, measurement of the scattering at an angle of 90° to the incident light beam).\nThe investigation into the light scattering of a 50 mM solution of compound (22a) in water was carried out using a Spectra-Physics 164 argon laser (plasma lines λ=528.7 and 611.5 nm), the scattering was measured at an angle of 90° to the incident light beam. The particle size thereby determined was <2.5 nm. 50 μl of 0.8M NaHCO3 solution were added to the resulting solution. The light scattering was measured, as described above, the average particle size thereby determined was 200-400 nm.\n50 μl of a 0.8M HCl was added to the resulting solution, and the sample was investigated by means of light scattering, as described above. The particle size thereby determined was <2.5 nm."}, "[5]": {"system": "influenza virus strain A/NIB/H1N1/89M", "test": "FBI test, inhibition of viral adhesion (Table 9)", "conditions": "6'SLN as reference compound (=1)"}, "[6]": {"system": "PK15 cells", "conditions": "read-out: Concentration at which 50% inhibition of cytotoxicity was achieved, human serum, 10% rabbit serum complement"}},
  "note": "Read-outs that look alike come from different tables or passages of the source.",
  "data": [
    {"compound": "{[Neu5Acα2-3Galβ1-4Glcβ1-NHCOCH2NH—CO(CH2)4CO—(NHCH2CO)7—NHCH2—]4C}x [Compound 51]", "values": [
      {"measurement": "Kd", "setting": "[1]", "value": 0.1, "unit": "µM"},
      {"measurement": "Relative activity", "setting": "[1]", "value": 200}
    ]},
    {"compound": "CC(=O)N[C@@H]1[C@@H](O)[C@H](O[C@@H]2O[C@H](CO[C@]3(C(=O)O)C[C@H](O)[C@@H](NC(C)=O)[C@H]([C@H](O)[C@H](O)CO)O3)[C@H](O)[C@H](O)[C@H]2O)[C@@H](CO)O[C@H]1NC(=O)CNC(=O)CCCCC(=O)NCC(=O)NCC(=O)NCC(=O)NCC(CNC(=O)CNC(=O)CNC(=O)CNC(=O)CCCCC(=O)NCC(=O)N[C@@H]1O[C@H](CO)[C@@H](O[C@@H]2O[C@H](CO[C@]3(C(=O)O)C[C@H](O)[C@@H](NC(C)=O)[C@H]([C@H](O)[C@H](O)CO)O3)[C@H](O)[C@H](O)[C@H]2O)[C@H](O)[C@H]1NC(C)=O)(CNC(=O)CNC(=O)CNC(=O)CNC(=O)CCCCC(=O)NCC(=O)N[C@@H]1O[C@H](CO)[C@@H](O[C@@H]2O[C@H](CO[C@]3(C(=O)O)C[C@H](O)[C@@H](NC(C)=O)[C@H]([C@H](O)[C@H](O)CO)O3)[C@H](O)[C@H](O)[C@H]2O)[C@H](O)[C@H]1NC(C)=O)CNC(=O)CNC(=O)CNC(=O)CNC(=O)CCCCC(=O)NCC(=O)N[C@@H]1O[C@H](CO)[C@@H](O[C@@H]2O[C@H](CO[C@]3(C(=O)O)C[C@H](O)[C@@H](NC(C)=O)[C@H]([C@H](O)[C@H](O)CO)O3)[C@H](O)[C@H](O)[C@H]2O)[C@H](O)[C@H]1NC(C)=O", "note": "[{Neu5Acα2-6Galβ1-4GlcNAcβ1-NHCOCH2NH—CO(CH2)4CO—(NHCH2CO)3—NHCH2—}4C, reference compound]", "values": [
      {"measurement": "Gel permeation HPLC peaks", "setting": "[2]; TSK-4000 column, 0.2M NaCl", "value": "only one peak is observed, which corresponds to the molecular weight of the monomer"}
    ]},
    {"compound": "[Neu5Ac-Gab-AC2-Ad-Gly5-NHCH2-]4C [Compound 46]", "values": [
      {"measurement": "Aggregate, %", "setting": "[2]", "value": 92, "unit": "%"},
      {"measurement": "Relative activity", "setting": "[3]", "value": 330},
      {"measurement": "Kd", "setting": "[3]; fetuin binding assay", "value": 0.3, "unit": "µM"}
    ]},
    {"compound": "{[Neu5Acα2-3Galβ1-4Glcβ1-NHCOCH2NH—CO(CH2)4CO—(NHCH2CO)5—NHCH2—]4C}x [Compound 50]", "values": [
      {"measurement": "Kd", "setting": "[1]", "value": 1, "unit": "µM"},
      {"measurement": "Relative activity", "setting": "[1]", "value": 20}
    ]},
    {"compound": "{[Neu5Acα-OCH2(p-C6H4)NHCOCH2NH—CO(CH2)4CO—(NHCH2CO)7—NHCH2—]4C} [Compound 48]", "values": [
      {"measurement": "Particle size of aggregates", "setting": "[4]; water, 60° C.", "value": "up to 8000 nm"},
      {"measurement": "Kd", "setting": "[3]; fetuin binding assay", "value": 0.1, "unit": "µM"},
      {"measurement": "Relative activity", "setting": "[5]", "value": "<0.2"}
    ]},
    {"compound": "[HCl.H-Gly7-NHCH2-]4C [Compound 22a]", "values": [
      {"measurement": "Particle size", "setting": "[4]; 50 mM solution in water", "value": "< 2.5", "unit": "nm"},
      {"measurement": "Association state", "setting": "[4]; after addition of 0.8M NaHCO3 solution", "value": "self-association of the compound is achieved"},
      {"measurement": "Average particle size", "setting": "[4]; after addition of 50 μl 0.8M NaHCO3 solution", "value": "200-400 nm"},
      {"measurement": "Particle size", "setting": "[4]; after subsequent addition of 50 μl 0.8M HCl", "value": "< 2.5", "unit": "nm"},
      {"measurement": "Association state", "setting": "[4]; water at 20° C.", "value": "non-associated form"}
    ]},
    {"compound": "[Neu5Ac-Gab-AC3-Ad-Gly5-NHCH2-]4C [Compound 47]", "values": [
      {"measurement": "Aggregate, %", "setting": "[2]", "value": 96, "unit": "%"},
      {"measurement": "Relative activity", "setting": "[3]", "value": 1000},
      {"measurement": "Kd", "setting": "[3]; fetuin binding assay", "value": 0.1, "unit": "µM"}
    ]},
    {"compound": "[6′SLN-Ap-Ad-Gly7-NHCH2]4C [Compound 53]", "values": [
      {"measurement": "Relative activity", "setting": "[5]", "value": 100}
    ]},
    {"compound": "[Neu5Ac-Gab-AC-Ad-Gly5-NHCH2-]4C [Compound 45]", "values": [
      {"measurement": "Aggregate, %", "setting": "[2]", "value": 12, "unit": "%"},
      {"measurement": "Relative activity", "setting": "[3]", "value": 15},
      {"measurement": "Kd", "setting": "[3]; fetuin binding assay", "value": 7, "unit": "µM"}
    ]},
    {"compound": "OC[C@H]1O[C@H](O[C@H]2[C@@H](O)[C@@H](CO)OC(O)[C@@H]2O)[C@H](O)[C@@H](O)[C@H]1O", "note": "(some centres unmarked) [Galα1-3Gal, reference compound]", "values": [
      {"measurement": "IC50", "setting": "[6]", "value": 200, "unit": "µM"}
    ]},
    {"compound": "[6′-SLN-Ap-Ad-AC2-Gly5-NHCH2]4C [Compound 54]", "values": [
      {"measurement": "Relative activity", "setting": "[5]", "value": 1000}
    ]},
    {"compound": "[Neu5Ac-Gab-Ad-AC2-Gly5-NHCH2-]4C [Compound 43]", "values": [
      {"measurement": "Aggregate, %", "setting": "[2]", "value": 6, "unit": "%"},
      {"measurement": "Relative activity", "setting": "[3]", "value": 1000},
      {"measurement": "Kd", "setting": "[3]; fetuin binding assay", "value": 0.1, "unit": "µM"}
    ]},
    {"compound": "O=C(CCCCCNC(=O)CCCCCNC(=O)CCCCC(=O)NCCCO[C@@H]1O[C@H](CO)[C@H](O)[C@H](O[C@H]2O[C@H](CO)[C@H](O)[C@H](O)[C@H]2O)[C@H]1O)NCCCCCC(=O)NCC(=O)NCC(=O)NCC(=O)NCC(=O)NCC(=O)NCC(CNC(=O)CNC(=O)CNC(=O)CNC(=O)CNC(=O)CNC(=O)CCCCCNC(=O)CCCCCNC(=O)CCCCCNC(=O)CCCCC(=O)NCCCO[C@@H]1O[C@H](CO)[C@H](O)[C@H](O[C@H]2O[C@H](CO)[C@H](O)[C@H](O)[C@H]2O)[C@H]1O)(CNC(=O)CNC(=O)CNC(=O)CNC(=O)CNC(=O)CNC(=O)CCCCCNC(=O)CCCCCNC(=O)CCCCCNC(=O)CCCCC(=O)NCCCO[C@@H]1O[C@H](CO)[C@H](O)[C@H](O[C@H]2O[C@H](CO)[C@H](O)[C@H](O)[C@H]2O)[C@H]1O)CNC(=O)CNC(=O)CNC(=O)CNC(=O)CNC(=O)CNC(=O)CCCCCNC(=O)CCCCCNC(=O)CCCCCNC(=O)CCCCC(=O)NCCCO[C@@H]1O[C@H](CO)[C@H](O)[C@H](O[C@H]2O[C@H](CO)[C@H](O)[C@H](O)[C@H]2O)[C@H]1O", "note": "[Compound 49, {Galα1-3Galβ1-O(CH2)3NH—CO(CH2)4CO—(NH(CH2)5CO)3—(NHCH2CO)5—NHCH2—]4C}x]", "values": [
      {"measurement": "IC50", "setting": "[6]", "value": 0.5, "unit": "µM"}
    ]},
    {"compound": "CC(=O)N[C@H]1[C@H]([C@H](O)[C@H](O)CO)O[C@@](OCc2ccccc2)(C(=O)O)C[C@@H]1O", "note": "[Neu5Acα-OBn, reference compound]", "values": [
      {"measurement": "Relative activity", "setting": "[3]", "value": 1},
      {"measurement": "Kd", "setting": "[3]; fetuin binding assay", "value": 100, "unit": "µM"}
    ]},
    {"compound": "CC(=O)N[C@H]1[C@H]([C@H](O)[C@H](O)CO)O[C@](OC[C@H]2O[C@@H](O[C@H]3[C@H](O)[C@@H](NC(C)=O)C(O)O[C@@H]3CO)[C@H](O)[C@@H](O)[C@H]2O)(C(=O)O)C[C@@H]1O", "note": "(some centres unmarked) [6'SLN, reference compound]", "values": [
      {"measurement": "Relative activity", "setting": "[5]", "value": 1}
    ]},
    {"compound": "CC(=O)N[C@H]1[C@H]([C@H](O)[C@H](O)CO)O[C@@](O[C@H]2[C@@H](O)[C@@H](CO)O[C@@H](O[C@H]3[C@H](O)[C@@H](O)C(O)O[C@@H]3CO)[C@@H]2O)(C(=O)O)C[C@@H]1O", "note": "(some centres unmarked) [3'SL, reference compound]", "values": [
      {"measurement": "Relative activity", "setting": "[1]; FBI test, 3'SL as reference compound (=1), specific activity per 3'SL group", "value": 1},
      {"measurement": "Kd", "setting": "[1]; fetuin binding assay, inhibitor virus complex", "value": 20, "unit": "µM"}
    ]},
    {"compound": "[Neu5Acα-OCH2(p-C6H4)NHCOCH2NH—CO(CH2)4CO—(NH(CH2)5CO)3—(NHCH2CO)5—NHCH2—]4C [Compound 44]", "values": [
      {"measurement": "Aggregate, %", "setting": "[2]", "value": 54, "unit": "%"},
      {"measurement": "Relative activity", "setting": "[3]", "value": 2500},
      {"measurement": "Increase in specific activity in comparison with free ligand Neu5AcαBn", "setting": "[3]; fetuin binding assay", "value": "more than three orders of magnitude"},
      {"measurement": "Kd", "setting": "[3]; fetuin binding assay", "value": 0.04, "unit": "µM"}
    ]}
  ]
}
